In brackets after ≈: the same amount, converted by molar mass. Where a name gives a salt, the structure may show the parent alone.
Key:
[1] = tested on: rat fat cells; assay: Histamine-release inhibiting activity from rat fat cells (Compound 48/80 induced); type: cell-based; settings: for histamine-release inhibiting activity (FIG. 7): sample solutions 100 μg/ml each; for IC50: 50% inhibition rate; for inhibition at 25 µg/mL: sample concentration 25 μg/ml; for inhibition at 75 µg/mL: sample concentration 75 μg/ml; for activity relative to the known agents (caffeic acid, ketotifen fumarate): from IC50 values of histamine-release inhibition; for inhibition at 250 µg/mL: sample concentration 250 μg/ml
Protocol: Cells were collected from the abdominal cavity of rats immediately after being sacrificed by exsanguinations using heparin-containing fat cell buffer (composition: 0.150 M NaCl, 3.7 mM KCl, 3.0 mM Na2HPO4, 3.5 mM KH2PO4, 0.9 mM CaCl2, 5.6 mM D-glucose, 0.1% (w/v) gelatin) (Lectures on Experimental Biopharmacology, Vol.12, Inflammations and Allergies II, edited by Kazuo Ohuchi, published by Hirokawa Publishing, 1993, page 372). After washing the cells, the above heparin-containing fat cell buffer was added to a concentration of 2.0×10^5 cells/ml, and this was used as the cell suspension.
Meanwhile, 3 mg of tomato extract were dissolved in 1 ml of 1% dimethyl sulfoxide (DMSO) and used as a sample solution. Further, the naringenin chalcone obtained in Example 1-3, and ketotifen fumarate, which is known to have an antiallergic activity, were respectively dissolved in the heparin-containing fat cell buffer containing 0.15% DMSO (final concentration), and the tricaffeoylquinic acid obtained in Example 1-4, and caffeic acid, which is known to have an antiallergic activity, were respectively dissolved in heparin-containing fat cell buffer containing 0.08% ethanol (final concentration), and each of these were used as sample solutions having concentrations of 25-250 μg/ml.
80 μl of the above cell suspension were added to 20 μl of the sample solution and the mixture was incubated at 37° C. for 10 minutes. Subsequently, 20 μl of Compound 48/80 (5 μg/ml) were added as histamine-degranulation inducer, and the mixture was incubated for 10 minutes. After the mixture was cooled with ice, it was separated by centrifugation (1,500×g, 5 minutes, 4° C.), and the free histamine in the supernatant was measured by high-performance liquid chromatography equipped with a fluorescent detector.
Histamine-release inhibiting activity was calculated from the measured histamine values using calculation formula (1) shown below. Histamine-release inhibition rate (%)=(1−(S−B)/(C−B))×100 (1) • B: Amount of histamine released from control cells in the absence of inducer • C: Amount of histamine released from cells in the presence of inducer • S: Amount of histamine released from cells in the presence of test sample and inducer

[2] = tested on: rat macrophages; assay: Leukotriene B4 release inhibiting activity from rat macrophages (opsonized zymosan, ELISA); type: cell-based; settings: Macrophage, read-out: Inhibition rate (%); for inhibition at 5 µg/mL: sample concentration 5 μg/ml; for inhibition at 50 µg/mL: sample concentration 50 μg/ml; for inhibition at 500 µg/mL: sample concentration 500 μg/ml
Protocol: Soluble starch (Wako, grade 1) and Bactopeptone (Difco) were suspended in physiological saline (0.9% NaCl, Ohtsuka Pharmaceutical, Co.) to have a concentration of 5% each. After sterilizing with an autoclave (121° C., 20 minutes), the suspension was cooled down to room temperature. The suspension was administered by injection into rat abdominal cavity in an amount of 5 mL per 100 g of body weight under ether anesthesia (using a 21G needle).
Four days later, the rats were sacrificed by exsanguination from the carotid artery under ether anesthesia. After adequately exsanguinating the rats, the rats were sprayed with ethanol and placed in a clean bench. 25 mL of CMF-HBSS (Ca, Mg free HBSS) were injected into the abdominal cavity followed by adequately rubbing the abdomen. The rats were laparotimized using sterilized instruments, and the solution within the abdominal cavity was collected. The collected solution was filtered using three layers of gauze. The abdominal cavity was further washed with 25 mL of CMF-HBSS (Ca, Mg free HBSS), and the solution was collected in the same manner. The collected cells were washed three times with ice-cold 0.1% BSA-PBS, suspended in 10% FBS-RPMI1640 medium. The cell suspension was dispersed in a 6 cm Petri dish to have 4.5×10^6 cells/3 mL/dish, and incubated for 2 hours in an incubator kept at 5% CO2 and 37° C. Subsequently, the supernatant was discarded, the Petri dish was washed three times with PBS to rinse off non-adherent cells, and the cells adhered onto inside of the Petri dish were used as macrophages. After the macrophages were pre-incubated for 20 minutes in 1% FBS-RPMI1640 medium, zymosan opsoninized using rat serum was added thereto, and the mixture was cultured in an incubator kept at 5% CO2 and 37° C. for a predetermined period of time. Incidentally, samples were added 30 minutes before addition of zymosan. After completion of culture, supernatant from the culture was recovered and the amount of LTB4 in the supernatant was measured using an ELISA kit (Leukotriene B4 EIA Kit, Cayman). Activity of inhibiting release of leukotriene B4 was calculated from the measured leukotriene B4 values using the following calculation formula (2): Leukotriene B4 release inhibition rate (%)=(1−(S−B)/(C−B))×100 (2) • B: Amount of leukotriene B4 released from control cells in the absence of inducer • C: Amount of leukotriene B4 released from cells in the presence of inducer • S: Amount of leukotriene B4 released from cells in the presence of test sample and inducer

[3] = tested on: mouse auricular edema; assay: Anaphylaxis inhibitory action in mouse auricular edema (anti-TNP-IgE / picryl chloride); type: in vivo
Protocol: C3H/Hecrj, 7-week-old female mice having body weights of 15-20 g were used in groups of five animals each. Tomato Extract 1 was suspended in 0.5% CMC-Na (sodium carboxymethyl cellulose) solution, while 0.5% CMC-Na was administered as a control. The samples were administered six times over the course of five days, and measurements were made on day 5. The animals were dosed once a day from day 1 through day 4, and on day 5, they were orally dosed twice, 4 hours before and 30 minutes after administration of anti-TNP-IgE solution. The dose of Tomato Extract 1 was 0.16 mg, 0.8 mg or 4 mg per 1 kg of mouse body weight.
0.2 ml of 1% anti-TNP-IgE solution was administered from the vein of eye ground, and 30 minutes later, sample solution was orally administered. Further 30 minutes later, thickness of the left and right ears were measured. Immediately after that, 10 μl of 0.8% acetone-olive oil (1:1) solution of picryl chloride was applied to each ear. The thickness of the left and right ears of the mice were measured two hours after application, and the difference in ear thickness before and after application was taken to represent edema caused by anaphylaxis. A test of significance was carried out using the Student's t-test.
Measurement was made in the same manner as in (1) above, except for administration method. Samples were administered six times over the course of five days, and measurement was made on day 5. The animals were dosed once a day from day 1 through day 4, and on day 5, they were orally dosed twice, 4 hours before and 30 minutes after administration of anti-TNP-IgE solution. The dose of tricaffeoylquinic acid was 0.16 mg, 0.8 mg, 4 mg or 20 mg per kilogram of mouse body weight.

[4] = Cytotoxicity test (Trypan Blue, rat abdominal cavity cells); type: cell-based; settings: various concentrations, 37° C., 0-120 minutes
Protocol: To 80 μl of cell suspension (1-2×10^6 cells/ml) prepared in the same manner as in Example 2 were added 20 μl of sample solutions (Tomato Extract 1, naringenin chalcone, tricaffeoylquinic acid or dicaffeoylsuccinylquinic acid obtained in Example 1) with various concentrations, and the mixture was cultured at 37° C. Each of 10 μl aliquots was taken after 0, 10, 20, 60 and 120 minutes from the start of culturing, and each aliquot was added to 20 μl of 0.4% Trypan Blue prepared in advance. Judging those cells that were stained with blue pigment to be dead cells, the number of cells was counted under microscopic examination using a hemocytometer. Viability (percentage of viable cells to the total number of cells) and the number of viable cells were measured.

[5] = Rattus norvegicus, histamine release
[6] = Rattus norvegicus, histamine release, read-out: Inhibition rate (%)

SMILES | histamine-release inhibiting activity (FIG. 7) [1] | IC50 [1, 5] [µg/mL] | inhibition at 25 µg/mL [1, 6] [%] | inhibition at 75 µg/mL [1, 6] [%] | cytotoxicity (viability and number of viable cells) [4] | further results
O=C(O)[C@]1(O)C[C@@H](O)[C@@H](O)[C@H](O)C1 [quinic acid, reference compound] | did not inhibit histamine-release | – | – | – | – | –
O=C(/C=C/c1ccc(O)c(O)c1)OC1CC(O)(C(=O)O)CC(OC(=O)/C=C/c2ccc(O)c(O)c2)C1OC(=O)/C=C/c1ccc(O)c(O)c1 (stereo not drawn) [Tricaffeoylquinic acid, 3,4,5-tricaffeoylquinic acid] | exhibited a significantly high activity | ~25 (≈ 36.8 µM) | 54.1 | 93.2 | no cytotoxicity was observed | activity relative to the known agents (caffeic acid, ketotifen fumarate) [1]: roughly 10 times; inhibition at 5 µg/mL [2]: 33.5%; inhibition at 50 µg/mL [2]: 65.8%; inhibition at 500 µg/mL [2]: 69.7%; anaphylaxis inhibitory action (FIG. 9) ([3]; dose 4 mg per kg): exhibited an anaphylaxis inhibitory action; anaphylaxis inhibitory action (FIG. 10) ([3]; orally administered, 0.16, 0.8, 4 or 20 mg per kg, six doses over five days): exhibited an anaphylaxis inhibitory action
O=C(/C=C/c1ccc(O)cc1)c1c(O)cc(O)cc1O [Naringenin chalcone, 2′,4′,6′,4-tetrahydroxy-chalcone] | – | ~70 (≈ 257 µM) | 28.2 | 53.9 | no cytotoxicity was observed | inhibition at 50 µg/mL ([1]; Rattus norvegicus, histamine release, sample concentration 50 μg/ml, read-out: Inhibition rate (%)): 37.6%; inhibition at 200 µg/mL ([1]; Rattus norvegicus, histamine release, sample concentration 200 μg/ml, read-out: Inhibition rate (%)): 82%; activity relative to the known agents (caffeic acid, ketotifen fumarate) [1]: roughly 3.5 times; inhibition at 5 µg/mL [2]: 62.3%; inhibition at 50 µg/mL [2]: 93.5%; inhibition at 500 µg/mL [2]: 98.2%; anaphylaxis inhibitory action (FIG. 8) ([3]; doses 0.0064, 0.032, 0.16 or 0.8 mg per kg): exhibited an anaphylaxis inhibitory action dose-dependently
CN1CCC(=C2c3ccccc3CC(=O)c3sccc32)CC1 [Ketotifen fumarate, ketotifen fumarate, reference compound] | – | ~250 | 0 | 13.1 | – | inhibition at 250 µg/mL [1, 6]: 49.4%
O=C(O)/C=C/c1ccc(O)c(O)c1 [Caffeic acid, caffeic acid, reference compound] | more potent in the order of caffeic acid followed by dicaffeoylquinic acid | ~250 (≈ 1390 µM) | – | – | – | inhibition at 250 µg/mL [1, 6]: 50.1%
O=C(/C=C/c1ccc(O)c(O)c1)O[C@@H]1C[C@](O)(C(=O)O)C[C@@H](O)[C@H]1O [chlorogenic acid, reference compound] | did not inhibit histamine-release | – | – | – | – | –
O=C(O)CCC(=O)OC1C(OC(=O)/C=C/c2ccc(O)c(O)c2)CC(O)(C(=O)O)CC1OC(=O)/C=C/c1ccc(O)c(O)c1 (stereo not drawn) [dicaffeoylsuccinylquinic acid, 3,5-dicaffeoyl-4-succinylquinic acid] | exhibited a significantly high activity | – | – | – | no cytotoxicity was observed | –

— US7511078B2, “Antiallergic agents, drugs, foods, drinks or cosmetics containing them and process for producing the same” (Kikkoman Corporation, priority 2001, dated 2009)
